# Source: patent US5703109A, “Selective aromatase inhibiting compounds” (Oy; Orion-yhtyma, priority 1992, dated 1997)
# Tests used:
# desmolase = test: Inhibition of desmolase (cholesterol side chain cleavage, SCC, activity); format: biochemical; details: mitochondrial fraction from human placenta or bovine adrenals, 37° C., 30 min; read-out: DESMOLASE IC-50
# Method: Incubations were carried out in 1,5 ml Eppendorf plastic robes, and an Eppendoff shaker, centrifuge and incubator were used as a unit. […] Controls contained all the above substances but the enzyme preparation was inactivated prior to the incubation by the addition of 900 μl of methanol. The mitochondrial fraction (1 mg protein) from human placenta or bovine adrenals was used as a source of enzyme. After 30 min incubation at 37° C., the reaction was terminated by the addition of 900 μl of methanol; 1500 dpm of marker ^14 C-4-pregnenolone was added to each incubate and the robes were vigorously shaken. […] The column was washed with one ml of 75% methanol and then with 3 ml of 80% methanol The 80% methanol eluate was run into the counting vial and 10 ml of scintillation liquid was added. Radioactivity was counted using a double-label program on a liquid scintillation counter (LKB RackBeta).
# In inhibition experiments, the substance (final concentration range from 1 to 1000 μM) was added into incubation mixture in a volume of 10-20 μl, usually as methanol or ethanol solution. The same volume of the solute was added into control incubation vial.
# human aromatase = molecular target: T1, human aromatase (Homo sapiens, UniProt P11511); test: Inhibition of human aromatase (3H2O release from 1,2[3H]-androstene-3,17-dione, human placenta microsomes); format: biochemical; details: human placental microsomes, 37° C., 40 min; read-out: AROMATASE IC-50
# T1 construct: The enzyme preparation was used without further purification; from tissue; host or cells: human placenta, microsomal fraction (100000×g precipitate)
# T1 sequence (P11511 1-503): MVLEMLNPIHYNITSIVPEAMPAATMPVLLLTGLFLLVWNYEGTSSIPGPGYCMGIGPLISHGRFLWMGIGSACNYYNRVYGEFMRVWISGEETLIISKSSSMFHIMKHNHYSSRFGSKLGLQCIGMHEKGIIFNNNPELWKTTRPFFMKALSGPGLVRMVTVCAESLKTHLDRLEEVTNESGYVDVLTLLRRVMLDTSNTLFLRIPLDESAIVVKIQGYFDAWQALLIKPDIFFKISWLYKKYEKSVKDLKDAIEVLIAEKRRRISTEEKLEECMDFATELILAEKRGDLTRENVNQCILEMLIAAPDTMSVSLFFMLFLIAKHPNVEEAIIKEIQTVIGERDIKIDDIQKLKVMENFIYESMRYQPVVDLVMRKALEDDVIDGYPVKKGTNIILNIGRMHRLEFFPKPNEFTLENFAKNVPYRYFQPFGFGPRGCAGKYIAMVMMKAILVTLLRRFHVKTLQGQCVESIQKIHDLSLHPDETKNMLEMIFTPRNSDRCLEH
# Method: Human aromatase enzyme was used. The enzyme was prepared from human placenta, which is rich of the enzyme. Microsomal fraction (100000×g precipitate) was prepared by centrifugation. The enzyme preparation was used without further purification. Test compounds listed in Table 1 were added together with 100000 dpm of 1,2[^3 H]-androstene-3,17-dione and NADPH generating system. The concentrations of the test compounds were 0.001; 0.01; 0.1 and 1.0 mM. The incubation was carried out at 37° C. for 40 min. […] Radioactivity was counted by a liquid scintillation counter. Aromatase inhibition was evaluated by comparing the ^3 H2 O-radioactivity of inhibitor treated samples to controls containing no inhibitor. IC-50 values were calculated as concentrations which inhibited the enzyme activity 50%.
# [1] = Acute toxicity, LD50, oral, in mice; format: in vivo; details: young adult female NMRI mice
# Excerpt: […]. The administration of the test compound was oral.
SMILES,IC50 (desmolase) [µM],IC50 (human aromatase) [µM],Acute toxicity (LD50 determination): tolerability of the highest dose tested ([1]; highest dose tested 400 mg/kg),Acute toxicity (LD50 determination): adverse effects ([1]; up to 400 mg/kg)
"N#Cc1ccc(C(=CCCc2ccc(F)cc2)n2cncn2)cc1 (single isomer, unassigned; isomer b) [Compound 3, 1-[1-(4-cyanophenyl)-4-(4-fluorophenyl)-1-butenyl]-1,2,4-triazole, isomer b]",300,,,
"N#Cc1ccc(C(C(O)Cc2ccc(F)cc2)n2cncn2)cc1 (single isomer, unassigned) [Compound 4, 1-[1-(4-cyanophenyl)-3-(4-fluorophenyl)-2-hydroxypropyl]-1,2,4-triazole, diastereomer a + d]",> 1000,0.26,well tolerated,No adverse effects were seen
"N#Cc1ccc(C(CCCc2ccc(F)cc2)n2ccnc2)cc1 (centres unmarked) [Compound 1, 1-[1-(4-cyanophenyl)-4-(4-fluorophenyl)butyl]-1H-imidazole]",17,,,
"N#Cc1ccc(C(=CCc2ccc(F)cc2)n2cncn2)cc1 (single isomer, unassigned; isomer b) [Compound 8, 1-[1-(4-cyanophenyl)-3-(4-fluorophenyl)-1-propenyl]-1,2,4-triazole, isomer b]",165,,,
"N#Cc1ccc(C(C(O)CCc2ccc(F)cc2)n2ccnc2)cc1 (single isomer, unassigned) [Compound 2, 1-[1-(4-cyanophenyl)-4-(4-fluorophenyl)-2-hydroxybutyl]-1H-imidazole, diastereomer a + d]",49,0.18,,

# The next lines start with results.
IC50 (desmolase) [µM],IC50 (human aromatase) [µM],SMILES,Acute toxicity (LD50 determination): tolerability of the highest dose tested ([1]; highest dose tested 400 mg/kg),Acute toxicity (LD50 determination): adverse effects ([1]; up to 400 mg/kg)
> 1000,0.95,"N#Cc1ccc(C(C(O)CCc2ccc(F)cc2)n2cncn2)cc1 (single isomer, unassigned) [Compound 5, 1-[1-(4-cyanophenyl)-4-(4-fluorophenyl)-2-hydroxybutyl]-1,2,4-triazole, diastereomer a + d]",,
172,0.9,"N#Cc1ccc(C(C(=O)CCc2ccc(F)cc2)n2cncn2)cc1 (centres unmarked) [Compound 7, 1-[1-(-4-cyanophenyl)-4-(4-fluorophenyl)-2-oxobutyl]-1,2,4-triazole]",,
380,0.3,"N#Cc1ccc(C(CC(O)c2ccc(F)cc2)n2cncn2)cc1 (centres unmarked) [Compound 6, 1-[1-(4-cyanophenyl)-3-(4-fluorophenyl)-3-hydroxypropyl]-1,2,4-triazole]",,
300,0.28,"N#Cc1ccc(C(O)(CCc2ccc(F)cc2)c2cncs2)cc1 (centres unmarked) [Compound 9, 5-[1-(4-cyanophenyl)-3-(4-fluorophenyl)-1-hydroxypropyl]thiazole]",,
